From patent publication US11957761B2, “Compounds having α4β7 integrin inhibition activity” (priority 2021, dated 2024)

Key:
Integrin α4β7-MAdCAM-1 = Integrin α4β7-MAdCAM-1 (Homo sapiens, UniProt P13612+P26010); test: cell-based
Method: Recombinant human MAdCAM-1 (rhMAdCAM-1) was obtained from R&D systems (Cat #6056-MC-050).
Binding buffer (1.5 mM CaCl2, 1 mM MnCl2, 100 mM NaCl, 50 mM TRIS-HCl (pH 7.5)
Cells: The human B lymphocyte cell line RPMI 8866 was obtained from Merck via ECACC (European collection of authenticated cell cultures) (Cat #95041316 and lot #14G012).
Day 0: RPMI 8866 cells were split to a concentration of 500.000 cells/mL.
A Maxisorp plate was coated with 100 μL/well of 1 μg/mL rhMAdCAM-1 in coating buffer. Plate was sealed with TopSeal A plus and incubated at 4° C. overnight.
Day 1: The plate was washed twice with 150 μL wash buffer and then blocked with 250 μL/well blocking buffer (1% BSA in PBS) for one hour at room temperature. CFSE Celltrace stock solution was prepared immediately prior to use by adding 18 μL of DMSO to one vial of CellTrace™ reagent and mixing well. […]
The cells were pelleted by centrifugation and resuspended in fresh pre-warmed complete culture medium and the cells were counted. […]
After the last wash, 100 μL of PBS (without Mg^2+ and Ca^2+) was added to each well and the fluorescence was read (Ex485/Em535) using a plate reader (Envision 2105 Multimode plate reader). To calculate the concentration response, the fluorescence value of control wells not containing cells was subtracted from each test well.
IC50 values were calculated using 4-parameter nonlinear fit of the data.

[1] = Pharmacokinetics in Beagle dogs, single s.c. and i.v. injection (Example 5); type: in vivo; details: male, plasma, 200 ug/kg, dog
Excerpt: The dosing vehicle was PBS buffer, pH 7.

[2] = Pharmacokinetics in rats, single i.v. bolus (Example 11); type: in vivo, Sprague Dawley or Wistar rats; details: male, plasma, iv, rat, 511 nmol/kg
Method: Sprague Dawley or Wistar rats (males with a body weight of approximately 250-350 g) were given a single intravenous (i.v. bolus) injection of the peptide to be tested. […] At each sampling time point, samples from the rats were drawn by tail cut. The dosing vehicle was 20 mM phosphate buffer, 260 mM mannitol, pH 7.

in vivo [3] = details: male, rat, plasma, iv, 510 nmol/kg
Method: Sprague Dawley or Wistar rats (males with a body weight of approximately 250-350 g) were given a single intravenous (i.v. bolus) injection of the peptide to be tested. Following i.v. administration of compound 1 (dose 510 nmol/kg, dosing volume […]), blood samples were drawn at 10 min, 15 min, 40 min, 1 h, 2 h, 4 h, 8 h, 24 h post-dose. At each sampling time point, samples from the rats were drawn by tail cut. The dosing vehicle was 20 mM phosphate buffer, 260 mM mannitol, pH 7.
(§1) Plasma samples were analyzed after protein precipitation by liquid chromatography mass spectrometry (LC-MS/MS). Individual plasma concentrations were used for calculation of the pharmacokinetic parameters using the non-compartmental approach in Phoenix WinNonlin 8.3 or a later version. Plasma terminal elimination half-life (T½) was determined as ln(2)/λz where λz is the magnitude of the slope of the log linear regression of the log concentration versus time profile during the terminal phase. AUCinf is the area under the plasma concentration−time curve extrapolated to infinity (AUCinf=AUClast+Clast/λz, where Clast is the last observed plasma concentration). C0 is the plasma concentration at the dosing time intercept and is back extrapolated by log-linear regression of the first two data points.

in vivo [4] = details: male, Beagle, dog, plasma, sc
Method: Beagle dogs (males with a body weight of approximately 10-12 kg) were given a single subcutaneous (s.c.) injection of the peptides to be tested. Following s.c. administration of the selected compounds (dose 10, 20, 50, 100, 200 and 400 μg/kg), dosing volume 0.1 m/kg, blood samples were drawn at 0, 3, 6, 8, 12, 24, 48, 72, 96, 120, 144, 168, 192, 216, 240, 264, 288, 312, 336, 576, 744, 936, 1104 and 1272 hours.
Blood was sampled through a venflon on day 1 (excluding the 8-hour timepoint). At the 8-hour sampling time, and the sampling timepoints hereafter, the blood was be sampled through v. jugularis with a vacutainer and vacutainer needle. The dosing vehicle was PBS buffer, pH 7.
as §1, with “is” for “is the plasma concentration at the dosing time intercept and is”

Sequence of Integrin α4β7-MAdCAM-1 (P13612 34-1032): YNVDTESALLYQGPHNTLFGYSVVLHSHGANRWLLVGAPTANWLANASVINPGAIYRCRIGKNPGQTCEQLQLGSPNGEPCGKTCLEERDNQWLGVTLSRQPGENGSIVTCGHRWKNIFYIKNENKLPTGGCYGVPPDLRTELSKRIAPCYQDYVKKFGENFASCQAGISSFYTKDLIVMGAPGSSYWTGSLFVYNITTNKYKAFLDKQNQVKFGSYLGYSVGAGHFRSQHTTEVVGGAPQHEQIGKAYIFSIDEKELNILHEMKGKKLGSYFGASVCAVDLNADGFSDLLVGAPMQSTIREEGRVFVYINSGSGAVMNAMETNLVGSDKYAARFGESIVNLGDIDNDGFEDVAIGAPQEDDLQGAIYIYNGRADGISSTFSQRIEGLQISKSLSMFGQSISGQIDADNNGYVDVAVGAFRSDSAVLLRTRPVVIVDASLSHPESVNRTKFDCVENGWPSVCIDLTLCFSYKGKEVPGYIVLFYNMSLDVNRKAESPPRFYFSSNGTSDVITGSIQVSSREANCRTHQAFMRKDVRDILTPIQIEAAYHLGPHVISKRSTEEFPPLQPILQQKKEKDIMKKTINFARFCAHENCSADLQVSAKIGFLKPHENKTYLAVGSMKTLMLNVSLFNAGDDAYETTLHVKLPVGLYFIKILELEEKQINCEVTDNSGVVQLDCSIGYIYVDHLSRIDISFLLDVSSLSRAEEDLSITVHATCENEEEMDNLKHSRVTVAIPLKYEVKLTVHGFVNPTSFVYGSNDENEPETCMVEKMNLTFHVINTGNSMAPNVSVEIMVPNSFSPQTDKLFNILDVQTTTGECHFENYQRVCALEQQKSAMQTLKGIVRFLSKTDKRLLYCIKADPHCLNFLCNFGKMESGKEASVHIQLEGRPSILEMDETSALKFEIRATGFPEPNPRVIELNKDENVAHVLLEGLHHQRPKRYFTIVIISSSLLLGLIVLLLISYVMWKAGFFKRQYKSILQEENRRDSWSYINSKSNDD
Sequence of Integrin α4β7-MAdCAM-1 (P26010 20-798): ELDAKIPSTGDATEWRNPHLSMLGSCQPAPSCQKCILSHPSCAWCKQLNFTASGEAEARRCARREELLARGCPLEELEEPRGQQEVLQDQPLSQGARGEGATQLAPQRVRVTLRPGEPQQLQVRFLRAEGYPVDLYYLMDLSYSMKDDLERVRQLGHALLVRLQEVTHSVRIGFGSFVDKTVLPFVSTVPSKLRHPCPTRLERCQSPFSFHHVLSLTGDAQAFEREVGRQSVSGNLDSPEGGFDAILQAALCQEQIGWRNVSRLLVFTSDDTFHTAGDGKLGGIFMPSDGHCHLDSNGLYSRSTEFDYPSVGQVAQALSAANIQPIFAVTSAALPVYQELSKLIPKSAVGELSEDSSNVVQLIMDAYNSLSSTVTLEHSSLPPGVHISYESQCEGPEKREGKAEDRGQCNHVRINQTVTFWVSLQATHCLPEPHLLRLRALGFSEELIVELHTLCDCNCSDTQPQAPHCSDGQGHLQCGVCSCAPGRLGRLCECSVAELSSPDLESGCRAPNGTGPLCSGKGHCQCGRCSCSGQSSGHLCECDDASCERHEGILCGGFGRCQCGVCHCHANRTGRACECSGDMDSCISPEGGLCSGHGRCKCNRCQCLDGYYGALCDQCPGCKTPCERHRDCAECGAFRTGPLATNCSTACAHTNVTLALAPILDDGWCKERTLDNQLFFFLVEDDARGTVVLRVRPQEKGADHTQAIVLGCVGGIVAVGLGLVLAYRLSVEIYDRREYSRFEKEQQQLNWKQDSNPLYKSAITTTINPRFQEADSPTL

## CC[C@H](C)[C@@H]1NC(=O)[C@H](CC(=O)O)NC(=O)[C@H](CC(C)C)NC(=O)c2ccc(-c3ccc(N4CCN(C(=O)c5ccccc5-c5ccccc5C(=O)N5CCN(c6ccc(-c7ccc8cc7CNC(=O)[C@@H]7CCCN7[C@H](C(=O)NC(C)(C)C)[C@H](C)NC(=O)[C@H]([C@@H](C)CC)NC(=O)[C@H](CC(=O)O)NC(=O)[C@H](CC(C)C)NC8=O)cc6)CC5)CC4)cc3)c(c2)CNC(=O)[C@@H]2CCCN2[C@H](C(=O)NC(C)(C)C)[C@H](C)NC1=O [Compound 1, 2,2′-((S,S,S,S,S,S,12S,8S, 11S,14S,17S,18S)-((([1,1′-biphenyl]-2,2′-dicarbonyl)bis(piperazine-4,1-diyl))bis(4,1-phenylene))bis(14-((S)-sec-butyl)-18-(tert-butylcarbamoyl)-8-isobutyl-17-methyl-2,6,9,12,15-pentaoxo-3,7,10,13,16-pentaaza-1(2,1)-pyrrolidina-5(1,3)-benzenacyclooctadecaphane-56,11-diyl))diacetic acid]
Integrin α4β7-MAdCAM-1
  IC50: 35 nM
[1]; IV
  AUC(0-inf): 19.3 µM·h
  Cmax: 743 nM
  half-life: 2.21 days
[1]; SC
  AUC(0-inf): 21.8 µM·h
  Cmax: 127 nM
  half-life: 3.97 days
[2]
  AUC(0-inf): 34 µM·h
  C0: 9.02 µM
  half-life: 473 min
In vivo [3]
  AUC(0-inf): 32.2 µM·h
  half-life: 337 min
In vivo [4]; 10 ug/kg
  AUC(0-inf): 2.46 µM·h
  Cmax: 18.1 nM
  Tmax: 20 h
  half-life: 14.2 days
In vivo [4]; 20 ug/kg
  AUC(0-inf): 5.68 µM·h
  Cmax: 43.1 nM
  Tmax: 20 h
  half-life: 19.2 days
In vivo [4]; 50 ug/kg
  AUC(0-inf): 11.6 µM·h
  Cmax: 102 nM
  Tmax: 20 h
  half-life: 14.2 days
In vivo [4]; 100 ug/kg
  AUC(0-inf): 58.6 µM·h
  Cmax: 504 nM
  Tmax: 20 h
  half-life: 9.58 days
In vivo [4]; 200 ug/kg
  AUC(0-inf): 72.5 µM·h
  Cmax: 417 nM
  Tmax: 20 h
  half-life: 9.58 days
In vivo [4]; 400 ug/kg
  AUC(0-inf): 158 µM·h
  Cmax: 927 nM
  Tmax: 20 h
  half-life: 10.8 days
